Data published in the NIST ThermoML archive (doi:10.1021/je8008182).
“And” between values parts separate entries of the source, which are not always exact repeats. Equal entries are not always repeated. Numbers after ± are expanded uncertainties.

Experiments:
[1] = Liquid; for mass density: Pycnometric method; for viscosity: Capillary tube (Ostwald / Ubbelohde) method
[2] = wn = mass fraction of the nth substance listed; conditions: 101 kPa, Liquid, w1 = 0.2; for mass density: Pycnometric method; for viscosity: Capillary tube (Ostwald / Ubbelohde) method
[3] = xn = mol fraction of the nth substance listed; conditions: 101 kPa, Liquid, x2 = 0; for viscosity: Capillary tube (Ostwald / Ubbelohde) method; for mass density: Pycnometric method

Cc1ccncc1 [4-methylpyridine]
mass density ([1]; 283.15 K, 101 kPa): 958.2 ± 0.4 kg/m3 | mass density ([1]; 283.15 K, 101.33 kPa): 958.2 ± 0.4 kg/m3 | mass density ([1]; 293.15 K, 101 kPa): 955.1 ± 0.4 kg/m3 | mass density ([1]; 293.15 K, 101.33 kPa): 955.1 ± 0.5 kg/m3 | mass density ([1]; 298.15 K, 101 kPa): 955.4 ± 0.5 kg/m3 and 951.1 ± 0.5 kg/m3 | viscosity ([1]; 298.15 K, 101.33 kPa): 0.8723 ± 0.0078 mPa·s | mass density ([1]; 298.15 K, 101.33 kPa): 951.1 ± 0.7 kg/m3 | viscosity ([1]; 303.15 K, 101 kPa): 0.8175 ± 0.0073 mPa·s | mass density ([1]; 303.15 K, 101 kPa): 951.1 ± 1.1 kg/m3 | viscosity ([1]; 308.15 K, 101 kPa): 0.7774 ± 0.0069 mPa·s | mass density ([1]; 308.15 K, 101 kPa): 941.3 ± 1.1 kg/m3 | viscosity ([1]; 313.15 K, 101 kPa): 0.7368 ± 0.0067 mPa·s | mass density ([1]; 313.15 K, 101 kPa): 936.6 ± 0.8 kg/m3 | viscosity ([1]; 318.15 K, 101 kPa): 0.6855 ± 0.0063 mPa·s | mass density ([1]; 318.15 K, 101 kPa): 932.1 ± 0.7 kg/m3 | viscosity ([1]; 323.15 K, 101 kPa): 0.6505 ± 0.0061 mPa·s | mass density ([1]; 323.15 K, 101 kPa): 927.7 ± 0.8 kg/m3 | viscosity ([1]; 328.15 K, 101 kPa): 0.5905 ± 0.0058 mPa·s | mass density ([1]; 328.15 K, 101 kPa): 923.2 ± 0.8 kg/m3 | viscosity ([1]; 333.15 K, 101 kPa): 0.5329 ± 0.0054 mPa·s | mass density ([1]; 333.15 K, 101 kPa): 918.5 ± 0.8 kg/m3 | viscosity ([1]; 338.15 K, 101 kPa): 0.4815 ± 0.005 mPa·s | mass density ([1]; 338.15 K, 101 kPa): 914 ± 0.8 kg/m3

O=S(=O)(O)O [sulfuric acid] + O
mass density ([2]; 283.15 K): 1145 ± 0.6 kg/m3 | viscosity ([2]; 293.15 K): 1.543 ± 0.014 mPa·s | mass density ([2]; 293.15 K): 1139.6 ± 0.6 kg/m3 | mass density ([2]; 298.15 K): 1136.4 ± 0.6 kg/m3 | viscosity ([2]; 303.15 K): 1.21 ± 0.011 mPa·s | mass density ([2]; 303.15 K): 1133.7 ± 0.6 kg/m3 | viscosity ([2]; 313.15 K): 0.987 ± 0.0089 mPa·s | mass density ([2]; 313.15 K): 1127.8 ± 0.6 kg/m3 | viscosity ([2]; 323.15 K): 0.824 ± 0.0074 mPa·s | mass density ([2]; 323.15 K): 1121.9 ± 0.6 kg/m3 | viscosity ([2]; 333.15 K): 0.716 ± 0.0064 mPa·s | mass density ([2]; 333.15 K): 1115.7 ± 0.7 kg/m3 | viscosity ([2]; 343.15 K): 0.638 ± 0.0057 mPa·s | mass density ([2]; 343.15 K): 1108.9 ± 0.7 kg/m3

O [water]
viscosity ([1]; 298.15 K, 101 kPa): 0.8903 ± 0.0081 mPa·s | viscosity ([1]; 303.15 K, 101 kPa): 0.7973 ± 0.0074 mPa·s | viscosity ([1]; 308.15 K, 101 kPa): 0.719 ± 0.0067 mPa·s | viscosity ([1]; 313.15 K, 101 kPa): 0.6526 ± 0.0061 mPa·s | viscosity ([1]; 318.15 K, 101 kPa): 0.5972 ± 0.0056 mPa·s | viscosity ([1]; 323.15 K, 101 kPa): 0.5468 ± 0.0052 mPa·s | mass density ([1]; 323.15 K, 101 kPa): 988 ± 0.5 kg/m3 | viscosity ([1]; 328.15 K, 101 kPa): 0.5042 ± 0.0048 mPa·s | mass density ([1]; 328.15 K, 101 kPa): 985.7 ± 0.5 kg/m3 | viscosity ([1]; 333.15 K, 101 kPa): 0.4669 ± 0.0045 mPa·s | mass density ([1]; 333.15 K, 101 kPa): 983.2 ± 0.6 kg/m3 | viscosity ([1]; 338.15 K, 101 kPa): 0.4341 ± 0.0042 mPa·s | mass density ([1]; 338.15 K, 101 kPa): 980.6 ± 0.6 kg/m3

O [water] + Cc1ccncc1
viscosity ([3]; 298.15 K): 0.8903 ± 0.0081 mPa·s | viscosity ([3]; 303.15 K): 0.7973 ± 0.0074 mPa·s | viscosity ([3]; 308.15 K): 0.719 ± 0.0067 mPa·s | viscosity ([3]; 313.15 K): 0.6526 ± 0.0061 mPa·s | viscosity ([3]; 318.15 K): 0.5972 ± 0.0056 mPa·s | viscosity ([3]; 323.15 K): 0.5468 ± 0.0052 mPa·s | mass density ([3]; 323.15 K): 988 ± 0.5 kg/m3 | viscosity ([3]; 328.15 K): 0.5042 ± 0.0048 mPa·s | mass density ([3]; 328.15 K): 985.7 ± 0.5 kg/m3 | viscosity ([3]; 333.15 K): 0.4669 ± 0.0045 mPa·s | mass density ([3]; 333.15 K): 983.2 ± 0.6 kg/m3 | viscosity ([3]; 338.15 K): 0.4341 ± 0.0042 mPa·s | mass density ([3]; 338.15 K): 980.6 ± 0.6 kg/m3
